The record followed here is patent US20260216347A1, “Substituted Imidazo-Based Compounds as Ligand Directed Degraders of IRAK3” (Celgene Corporation, priority 2022, published 2026).

For this experiment, the target named is T1, IRAK3-ePL (Homo sapiens, UniProt Q9Y616).
T1 construct: expressed in transfected cells; host or cells: 293T CRBN OE/GSPT1 G575N KI cells, lentiviral transduction, puromycin selected
Put plainly: IRAK3-ePL overexpressing degradation assay (InCELL Hunter luminescence, dose response). The following applies: for IRAK3 ePL degradation Ymin: lowest percentage of target protein remaining following compound treatment; for DC50: read-out: IRAK3 ePL degradation EC50. The experiment is classed as cell-based. The essentials:
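Lenti-X 293T CRBN/GSPT1 G575N cells stably expressing IRAK3-ePL (5,000/well) treated overnight at 37° C with 10-point 3-fold dilutions from 10 μM, 0.2% DMSO. InCELL Hunter luminescence, background subtracted using Ataluren wells and normalized to DMSO; EC50 from four-parameter logistic fit.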

As to `Cc1cccc(-c2cnc(Nc3cnn(C4CCN(CC(=O)N5CCN(c6ccc7c(c6)C(=O)N(C6CCC(=O)NC6=O)C7)CC5)CC4)c3)c3nccn23)c1` (stereo not shown) [Compound 16, 3-(1-oxo-6-(4-(2-(4-(4-((5-(m-tolyl)imidazo[1,2-a]pyrazin-8-yl)amino)-1H-pyrazol-1-yl)piperidin-1-yl)acetyl)piperazin-1-yl)isoindolin-2-yl)piperidine-2,6-dione], the “IRAK3 ePL degradation Ymin” value stood at 33% and the DC50 stood at 21 nM.

Take `Cc1cc(-c2cnc(Nc3cnn(C4CCN(CC(=O)N5CCN(c6ccc(C7CCC(=O)NC7=O)cc6)CC5)CC4)c3)c3nccn23)c(F)cc1F` (stereo not shown) [Compound 17, 3-(4-(4-(2-(4-(4-((5-(2,4-difluoro-5-methylphenyl)imidazo[1,2-a]pyrazin-8-yl)amino)-1H-pyrazol-1-yl)piperidin-1-yl)acetyl)piperazin-1-yl)phenyl)piperidine-2,6-dione]: the “IRAK3 ePL degradation Ymin” value came out at 14% and the DC50 stood at 0.51 nM.

For the compound `Cc1cc(-c2cnc(Nc3cnn(C4CCN(CC(=O)N5CCN(c6ccc7c(c6)C(=O)N(C6CCC(=O)NC6=O)C7)CC5)CC4)c3)c3nccn23)c(F)cc1F` (stereo not shown) [Compound 18, 3-(6-(4-(2-(4-(4-((5-(2,4-difluoro-5-methylphenyl)imidazo[1,2-a]pyrazin-8-yl)amino)-1H-pyrazol-1-yl)piperidin-1-yl)acetyl)piperazin-1-yl)-1-oxoisoindolin-2-yl)piperidine-2,6-dione], the “IRAK3 ePL degradation Ymin” value stood at 22% and the DC50 was 9.7 nM. Turning to `Cc1cccc(-c2cnc(Nc3cnn(C4CCN(CC(=O)N5CCN(c6ccc7c(c6)CN(C6CCC(=O)NC6=O)C7=O)CC5)CC4)c3)c3nccn23)c1` (stereo not shown) [Compound 19, 3-(1-oxo-5-(4-(2-(4-(4-((5-(m-tolyl)imidazo[1,2-a]pyrazin-8-yl)amino)-1H-pyrazol-1-yl)piperidin-1-yl)acetyl)piperazin-1-yl)isoindolin-2-yl)piperidine-2,6-dione], the “IRAK3 ePL degradation Ymin” value is 18% and the DC50 was found to be 12 nM. Turning to `Cc1cc(-c2cnc(Nc3cnn(C4CCN(CCN5CCN(c6cccc(C7CCC(=O)NC7=O)c6)CC5)CC4)c3)c3nccn23)c(F)cc1F` (stereo not shown) [Compound 31, 3-(3-(4-(2-(4-(4-((5-(2,4-difluoro-5-methylphenyl)imdazo [1,2-a]pyrazin-8-yl)amino)-1H-pyrazol-1-yl)piperidin-1-yl)ethyl)piperazin-1-yl)phenyl) piperidine-2,6-dione], the “IRAK3 ePL degradation Ymin” value is reported as 44% and the DC50 came out at 38 nM.

As to `Cc1cc(-c2cnc(Nc3cnn(C4CCN(CCN5CCN(c6ccc(C7CCC(=O)NC7=O)cc6)CC5)CC4)c3)c3nccn23)ccc1F` (stereo not shown) [Compound 33, 3-(4-(4-(2-(4-(4-((5-(4-fluoro-3-methylphenyl)imdazo [1,2-a]pyrazin-8-yl)amino)-1H-pyrazol-1-yl)piperidin-1-yl)ethyl)piperazin-1-yl)phenyl) piperidine-2,6-dione], the “IRAK3 ePL degradation Ymin” value came out at 24% and the DC50 is 7.9 nM. For the compound `Cc1cc(-c2cnc(Nc3cnn([C@H]4CCN(CCN5CCN(c6ccc(C7CCC(=O)NC7=O)cc6)C[C@H]5C)[C@@H](C)C4)c3)c3nccn23)c(F)cc1F` (stereo partly drawn) [Compound 35, 3-(4-((R)-4-(2-((2S,4S)-4-(4-((5-(2,4-difluoro-5-methylphenyl)imdazo [1,2-a]pyrazin-8-yl)amino)-1H-pyrazol-1-yl)-2-methylpiperidin-1-yl)ethyl)-3-methylpiperazin-1-yl)phenyl) piperidine-2,6-dione], the “IRAK3 ePL degradation Ymin” value turned out to be 24% and the DC50 came out at 0.63 nM. `Cc1cc(-c2cnc(Nc3cnn([C@H]4CCN(CCN5CCN(c6ccc(C7CCC(=O)NC7=O)cc6)CC5)C[C@@H]4F)c3)c3nccn23)c(F)cc1F` (stereo partly drawn) [Compound 72, 3-(4-(4-(2-((3S,4S)-4-(4-((5-(2,4-difluoro-5-methylphenyl)imdazo [1,2-a]pyrazin-8-yl)amino)-1H-pyrazol-1-yl)-3-fluoropiperidin-1-yl)ethyl)piperazin-1-yl)phenyl) piperidine-2,6-dione]: the “IRAK3 ePL degradation Ymin” value came out at 24% and the DC50 is 0.51 nM. Regarding `O=C1CCC(c2ccc(N3CCN(CCN4CCC(n5cc(Nc6ncc(-c7ccc(F)cc7)n7ccnc67)cn5)CC4)CC3)cc2)C(=O)N1` (stereo not shown) [Compound 74, 3-(4-(4-(2-(4-(4-((5-(4-fluorophenyl)imidazo [1,2-a]pyrazin-8-yl)amino)-1H-pyrazol-1-yl)piperidin-1-yl)ethyl)piperazin-1-yl)phenyl) piperidine-2,6-dione], the “IRAK3 ePL degradation Ymin” value is on record as 26% and the DC50 turned out to be 1 nM.

With `O=C1CCC(c2ccc(N3CCN(CCN4CCC(n5cc(Nc6ncc(-c7ccccc7F)n7ccnc67)cn5)CC4)CC3)cc2)C(=O)N1` (stereo not shown) [Compound 75, 3-(4-(4-(2-(4-(4-((5-(2-fluorophenyl)imidazo [1,2-a]pyrazin-8-yl)amino)-1H-pyrazol-1-yl)piperidin-1-yl)ethyl)piperazin-1-yl)phenyl) piperidine-2,6-dione], the “IRAK3 ePL degradation Ymin” value is reported as 25% and the DC50 was determined as 4.1 nM. Turning to `Cc1cc(-c2cnc(Nc3cnn(C4CCN(CCN5CCN(c6ccc([C@]7(C)CCC(=O)NC7=O)cc6)CC5)CC4)c3)c3nccn23)c(F)cc1F` [Compound 76, (S)-3-(4-(4-(2-(4-(4-((5-(2,4-difluoro-5-methylphenyl)imdazo [1,2-a]pyrazin-8-yl)amino)-1H-pyrazol-1-yl)piperidin-1-yl)ethyl)piperazin-1-yl)phenyl)-3-methylpiperidine-2,6-dione], the “IRAK3 ePL degradation Ymin” value is listed as 78%. On to `Cc1cc(-c2cnc(Nc3cnn(C4CCN(CCN5CCN(c6ccc([C@@]7(C)CCC(=O)NC7=O)cc6)CC5)CC4)c3)c3nccn23)c(F)cc1F` [Compound 77, (R)-3-(4-(4-(2-(4-(4-((5-(2,4-difluoro-5-methylphenyl)imdazo [1,2-a]pyrazin-8-yl)amino)-1H-pyrazol-1-yl)piperidin-1-yl)ethyl)piperazin-1-yl)phenyl)-3-methylpiperidine-2,6-dione], for which the “IRAK3 ePL degradation Ymin” value was determined as 27% and the DC50 came to 1.1 nM. With `O=C1CCC(c2ccc(N3CCN(CCN4CCC(n5cc(Nc6ncc(-c7cccc(F)c7)n7ccnc67)cn5)CC4)CC3)cc2)C(=O)N1` (stereo not shown) [Compound 80, 3-(4-(4-(2-(4-(4-((5-(3-fluorophenyl)imidazo [1,2-a]pyrazin-8-yl)amino)-1H-pyrazol-1-yl)piperidin-1-yl)ethyl)piperazin-1-yl)phenyl) piperidine-2,6-dione], the “IRAK3 ePL degradation Ymin” value amounted to 28% and the DC50 came to 26 nM. For `Cc1cc(-c2cnc(Nc3cnn([C@H]4CC[C@H](CCN5CCN(c6ccc([C@@]7(C)CCC(=O)NC7=O)cc6)CC5)CC4)c3)c3nccn23)c(F)cc1F` [Compound 81, (R)-3-(4-(4-(2-((trans)-4-(4-((5-(2,4-difluoro-5-methylphenyl)imidazo[1,2-a]pyrazin-8-yl)amino)-1H-pyrazol-1-yl)cyclohexyl)ethyl)piperazin-1-yl)phenyl)-3-methylpiperidine-2,6-dione], the “IRAK3 ePL degradation Ymin” value was 27% and the DC50 is 3.3 nM. Regarding `Cc1cc(-c2cnc(Nc3cnn([C@H]4CC[C@H](CCN5CCN(c6ccc([C@]7(C)CCC(=O)NC7=O)cc6)CC5)CC4)c3)c3nccn23)c(F)cc1F` [Compound 82, (S)-3-(4-(4-(2-((trans)-4-(4-((5-(2,4-difluoro-5-methylphenyl)imidazo[1,2-a]pyrazin-8-yl)amino)-1H-pyrazol-1-yl)cyclohexyl)ethyl)piperazin-1-yl)phenyl)-3-methylpiperidine-2,6-dione], the “IRAK3 ePL degradation Ymin” value is given as 66%.
